Test results as given in doi:10.1101/2025.01.28.635346v1 (bioRxiv, 2025).
Bridge positions count the residues as written; N and C are the ends. Side chains are listed from the residue outwards. Peptide text beside a SMILES is read from it. * marks the point of attachment. Butanoyl(4-(4-I-phenyl)) = O=C(CCCc1ccc(I)cc1)*; PEG2 = NCCOCCOCCC(=O)O

Key:
[1] = molecular target: T1, EDNRA (Homo sapiens, UniProt P25101); experiment: Safetyscan47 GPCR Calcium Flux, Agonist; type: cell-based; details: for Emax: read-out: Max Response
T1 sequence (P25101 21-427): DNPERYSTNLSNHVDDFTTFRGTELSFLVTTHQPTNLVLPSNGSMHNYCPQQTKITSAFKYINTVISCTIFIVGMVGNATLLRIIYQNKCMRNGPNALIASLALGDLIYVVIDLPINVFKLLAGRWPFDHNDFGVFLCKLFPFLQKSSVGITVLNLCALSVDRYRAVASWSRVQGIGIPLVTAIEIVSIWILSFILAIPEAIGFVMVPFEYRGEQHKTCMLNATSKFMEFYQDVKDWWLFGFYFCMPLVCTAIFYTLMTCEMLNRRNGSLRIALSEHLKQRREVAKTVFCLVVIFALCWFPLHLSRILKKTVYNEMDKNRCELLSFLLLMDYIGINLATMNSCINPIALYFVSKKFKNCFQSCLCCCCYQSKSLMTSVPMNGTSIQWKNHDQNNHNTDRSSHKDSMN

[2] = molecular target: HTR2B (Homo sapiens, UniProt P41595); experiment: Safetyscan47 GPCR Calcium Flux, Agonist; type: cell-based; details: for Emax: read-out: Max Response
[3] = molecular target: T2, AR (Homo sapiens, UniProt P10275); experiment: Safetyscan47 NHR Nuclear Translocation, Agonist; type: cell-based; details: for Emax: read-out: Max Response
T2 sequence (P10275 1-920): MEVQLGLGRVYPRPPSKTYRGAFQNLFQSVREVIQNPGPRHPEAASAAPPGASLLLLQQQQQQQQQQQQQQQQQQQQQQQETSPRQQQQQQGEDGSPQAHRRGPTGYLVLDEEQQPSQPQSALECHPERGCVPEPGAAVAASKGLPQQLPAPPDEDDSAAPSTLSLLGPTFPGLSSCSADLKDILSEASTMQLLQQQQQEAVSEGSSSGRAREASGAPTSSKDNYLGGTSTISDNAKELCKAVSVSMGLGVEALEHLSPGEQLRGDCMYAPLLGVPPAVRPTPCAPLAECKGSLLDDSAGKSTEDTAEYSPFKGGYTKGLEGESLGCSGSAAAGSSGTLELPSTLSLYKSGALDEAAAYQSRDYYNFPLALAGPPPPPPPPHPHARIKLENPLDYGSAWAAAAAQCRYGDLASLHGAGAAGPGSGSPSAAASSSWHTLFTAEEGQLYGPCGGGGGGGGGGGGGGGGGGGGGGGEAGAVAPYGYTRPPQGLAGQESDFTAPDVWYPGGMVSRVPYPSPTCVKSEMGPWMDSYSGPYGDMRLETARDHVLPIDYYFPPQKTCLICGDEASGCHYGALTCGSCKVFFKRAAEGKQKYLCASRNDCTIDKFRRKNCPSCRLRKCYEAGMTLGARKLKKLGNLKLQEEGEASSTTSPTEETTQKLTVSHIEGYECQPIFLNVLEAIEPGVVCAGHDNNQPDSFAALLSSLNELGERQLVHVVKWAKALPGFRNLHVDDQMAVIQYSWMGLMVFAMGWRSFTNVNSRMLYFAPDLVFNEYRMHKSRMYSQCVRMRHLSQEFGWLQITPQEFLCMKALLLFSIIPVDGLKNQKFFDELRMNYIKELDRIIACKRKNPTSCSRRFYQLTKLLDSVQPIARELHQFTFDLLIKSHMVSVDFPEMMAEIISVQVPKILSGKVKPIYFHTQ

[4] = molecular target: integrin α5β1 (Homo sapiens, UniProt P05556+P08648); experiment: ELISA competition assay, integrin α5β1; type: binding
[5] = molecular target: DRD1 (Homo sapiens, UniProt P21728); experiment: Safetyscan47 GPCR cAMP, Agonist; type: cell-based; details: for Emax: read-out: Max Response
[6] = molecular target: SERT (Homo sapiens, UniProt P31645); experiment: Safetyscan47 Transporter, Blocker; type: cell-based; details: for Emax: read-out: Max Response
[7] = molecular target: T3, ADRA1A (Homo sapiens, UniProt P35348); experiment: Safetyscan47 GPCR Calcium Flux, Antagonist; type: cell-based; details: for Emax: read-out: Max Response
T3 sequence (P35348 1-466): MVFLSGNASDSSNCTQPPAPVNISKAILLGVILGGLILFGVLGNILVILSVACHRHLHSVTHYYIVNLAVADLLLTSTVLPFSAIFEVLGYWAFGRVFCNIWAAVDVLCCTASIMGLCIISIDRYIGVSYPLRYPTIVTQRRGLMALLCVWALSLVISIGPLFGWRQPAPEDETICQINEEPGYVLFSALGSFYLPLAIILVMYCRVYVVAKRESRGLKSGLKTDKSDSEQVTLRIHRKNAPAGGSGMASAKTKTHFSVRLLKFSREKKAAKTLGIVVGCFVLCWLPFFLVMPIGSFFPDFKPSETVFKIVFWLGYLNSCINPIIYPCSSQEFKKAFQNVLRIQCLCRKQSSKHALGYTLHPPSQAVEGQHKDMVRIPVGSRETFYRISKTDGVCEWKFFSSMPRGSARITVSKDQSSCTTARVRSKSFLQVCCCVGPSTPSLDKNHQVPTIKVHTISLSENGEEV

[8] = molecular target: OPRK1 (Homo sapiens, UniProt P41145); experiment: Safetyscan47 GPCR cAMP, Agonist; type: cell-based; details: for Emax: read-out: Max Response
[9] = molecular target: integrin αvβ3 (Homo sapiens, UniProt P05106+P06756); experiment: ELISA competition assay, integrin αvβ3; type: binding
[10] = molecular target: LCK (Homo sapiens, UniProt P06239); experiment: Safetyscan47 Kinases Binding, Inhibitor; details: for Emax: read-out: Max Response

CC[C@H](C)[C@H](NC(=O)[C@H](CC(C)C)NC(=O)[C@H](CC(=O)O)NC(=O)CNC(=O)[C@H](CCCNC(=N)N)NC(=O)[C@@H](NC(=O)[C@H](Cc1ccccc1)NC(=O)[C@H](Cc1ccc(O)cc1)NC(=O)[C@@H]1CCC(=O)NCC(=O)NCC(=O)N[C@@H](CCCNC(=N)N)C(=O)NCC(=O)N[C@@H](Cc2c[nH]cn2)C(=O)N[C@@H](C(C)C)C(=O)N2CCC[C@H]2C(=O)N1)C(C)C)C(=O)N[C@@H](CO)C(=O)N[C@@H](Cc1ccccc1)C(=O)N[C@@H](Cc1ccc(O)cc1)C(=O)N[C@@H](CCCCN)C(=O)O [lassotide 36] (GGRGHVPEYFVRGDLISFYK-OH; lactam N-8)
EC50 [1]: > 45 µM | Emax [1]: 1.75% | EC50 [2]: > 45 µM | Emax [2]: 0% | EC50 [3]: > 45 µM | Emax [3]: 0% | IC50 [4]: 2.35 µM | EC50 [5]: > 45 µM | Emax [5]: 0% | IC50 [6]: > 45 µM | Emax [6]: 17.5% | IC50 [7]: > 45 µM | Emax [7]: 9.9% | EC50 [8]: > 45 µM | Emax [8]: 2.19% | IC50 [9]: 0.343 µM | IC50 [10]: > 45 µM | Emax [10]: 0%

CC[C@H](C)[C@H](NC(=O)[C@H](CC(C)C)NC(=O)[C@H](CC(=O)O)NC(=O)CNC(=O)[C@H](CCCNC(=N)N)NC(=O)[C@@H](NC(=O)[C@H](Cc1ccccc1)NC(=O)[C@H](Cc1ccc(O)cc1)NC(=O)[C@@H]1CCC(=O)NCC(=O)NCC(=O)N[C@@H](CCCNC(=N)N)C(=O)NCC(=O)N[C@@H](Cc2c[nH]cn2)C(=O)N[C@@H](C(C)C)C(=O)N2CCC[C@H]2C(=O)N1)C(C)C)C(=O)N[C@@H](CO)C(=O)N[C@@H](Cc1ccccc1)C(=O)N[C@@H](Cc1ccc(O)cc1)C(=O)N[C@@H](CCCCNC(=O)CCOCCOCCNC(=O)CCCc1ccc(I)cc1)C(=O)O [lassotide 47] (GGRGHVPEYFVRGDLISFYK([PEG2-Butanoyl(4-(4-I-phenyl))])-OH; lactam N-8)
EC50 [1]: > 45 µM | Emax [1]: 2.94% | EC50 [2]: > 45 µM | Emax [2]: 0% | EC50 [3]: > 45 µM | Emax [3]: 0% | IC50 [4]: 5.02 µM | EC50 [5]: > 45 µM | Emax [5]: 0% | IC50 [6]: > 45 µM | Emax [6]: 22.5% | IC50 [7]: > 45 µM | Emax [7]: 2.58% | EC50 [8]: > 45 µM | Emax [8]: 23.4% | IC50 [9]: 1 µM | IC50 [10]: > 45 µM | Emax [10]: 0%
